Source: PMC9150102 (Journal of Medicinal Chemistry, 2022)

What was measured:
STZ diabetic rats = assay: Echocardiography (hemodynamics) in STZ diabetic rats during i.v. infusion; type: in vivo, rat
Experimental: Drug effects reached a plateau at 15 min of infusion; 10 min after discontinuation of the infusion, most echo indexes affected by the compound returned to the basal level.
Echocardiographic parameters were measured before (basal) and at 15 and 30 min during drug infusion and 10 min after drug interruption under urethane anesthesia. Data are the mean ± SEM; all the results of echocardiographic indexes are summarized in Table S2; N = 13; *p < 0.05 (one-way RM ANOVA).
Diabetes was induced in Sprague Dawley male rats (150–175 g) by a single i.v. STZ group (50 mg/kg in citrate buffer) injection in the tail vein. Control (healthy group) rats received vehicle (citrate buffer).
Rats were studied by transthoracic echocardiographic under anesthesia (1.25 g/kg urethane, i.p). Left-ventricular end-diastolic (LVEDD) and end-systolic (LVESD) diameter, posterior wall (PWT), and interventricular septal thickness (IVST) were measured according to the American Society of Echocardiography guidelines.[16] FS was calculated as FS = (LVEDD – LVESD)/LVEDD. Trans-mitral flow velocity was measured (pulsed Doppler) to obtain early and late filling velocities (E and A waves) and E wave deceleration time (DT). […]
Hemodynamic studies in rats with diabetic cardiomyopathy
Control (healthy group) rats received STZ vehicle (citrate buffer). […]
were considered diabetic9.
Two-dimensionally guided M-mode recordings were […]
the American Society of Echocardiography guidelines13. Fractional shortening was calculated as FS = […]
E wave deceleration time (DT). […]
jugular vein for drug infusion in rats. Rats were randomly submitted to an echocardiographic study […]
intravenous infusion at the dose of 0.2 mg/kg/min. Echo parameters were measured at 15 and 30 min after infusion start and 10 min after drug interruption under urethane anesthesia. Data are mean ± SEM. *p<0.05 vs basal (one-way ANOVA for repeated measurements). […]
basal after 15 min after 30 min after 10 min

[1] = Acute toxicity (LD50) in mice; conditions: male, Albino Swiss CD-1, mouse, in vivo
Experimental: Acute toxicity (LD50) was preliminarily evaluated in mice following i.v. and oral drug administration.
Control animals received the vehicle only.
Drug toxicity studies in mice
Acute toxicity was determined in CD1 mice. Separate mice groups were either orally treated, or
intravenously injected, with increasing doses of the tested substance to identify the dose causing 50%
mortality (LD50). Acute mortality was assessed at 30 min after compound administration; survival was

[2] = system: SR Ca^2+ uptake in STZ cardiomyocytes; assay: SR loading protocol (SR Ca2+ uptake under NCX inhibition) in patch-clamped STZ myocytes; type: cell-based, rat; conditions: 1 μM
[3] = system: Na^+/K^+ ATPase current (INaK); assay: Na+/K+ ATPase current (INaK) in isolated rat LV myocytes; type: cell-based; conditions: isolated rat cardiomyocytes
[4] = i.v. infusion 0.2 mg/kg/min, after 15 min
[5] = i.v. infusion 0.2 mg/kg/min, after 30 min

## C[C@]12CC[C@H](CCCC(=O)O)C[C@@H]1[C@@H](O)C[C@@H]1[C@@H]2CC[C@]2(C)C(=O)CC[C@@H]12 [Compound 5]
STZ diabetic rats; 10 min after drug interruption
  CO: 153,2±10,67 ml/min
  DT: 52,4±4,36 ms
  DT/E: 68,2±6,13 s2/mm
  E/A: 1,37±0,06
  E/DT: 16,5±1,78 m/s2
  E/e': 40,22±0,82
  EF: 92,66±1,05%
  FS: 61,3±2,05%
  HR: 228±10 bpm
  IVSTd: 1,68 ± 0,07 mm
  IVSTs: 2,55 ± 0,10 mm
  LVEDD: 6,84 ± 0,17 mm
  LVESD: 2,64 ± 0,17 mm
  PWTd: 1,17 ± 0,07 mm
  PWTs: 2,42 ± 0,10 mm
  SV: 0,68±0,05 ml
  a': 26,22±1,31 mm/s
  e': 19,4±0,60 mm/s
  e'/a': 0,76±0,047
  s': 20,6±0,53 mm/s
STZ diabetic rats; [4]
  CO: 177,2±11,27 ml/min
  DT: 42,46±2,83 ms
  DT/E: 49,52±3,44 s2/mm
  E/A: 1,36±0,05
  E/DT: 21,49±1,61 m/s2
  E/e': 37,49±1,2
  EF: 90,68±1,4%
  FS: 58,1±2,38%
  HR: 268±15 bpm
  IVSTd: 1,81±0,08 mm
  IVSTs: 2,34±0,10 mm
  LVEDD: 6,86±0,17 mm
  LVESD: 2,87±0,18 mm
  PWTd: 1,16±0,07 mm
  PWTs: 2,59±0,09 mm
  SV: 0,68±0,05 ml
  a': 29,13±1,82 mm/s
  e': 23,33±0,73 mm/s
  e'/a': 0,84±0,07
  s': 22,4±0,86 mm/s
STZ diabetic rats; [5]
  CO: 175,15±9,4 ml/min
  DT: 42,15±2,74 ms
  DT/E: 48,51±4,56 s2/mm
  E/A: 1,34±0,06
  E/DT: 23,18±2,32 m/s2
  E/e': 37,45±1,24
  EF: 92,19±1,18%
  FS: 60,7±2,31%
  HR: 252±14 bpm
  IVSTd: 1,71±0,1 mm
  IVSTs: 2,55±0,13 mm
  LVEDD: 6,94±0,15 mm
  LVESD: 2,73±0,18 mm
  PWTd: 1,22±0,07 mm
  PWTs: 2,53±0,10 mm
  SV: 0,71±0,04 ml
  a': 28,94±1,47 mm/s
  e': 24,24±0,65 mm/s
  e'/a': 0,86±0,05
  s': 21,8±0,78 mm/s
STZ diabetic rats; i.v. infusion at a single dose
  systolic function: did not affect systolic function significantly
[1]; iv
  LD50 at 24 h: 300 mg/kg
[1]; po
  LD50 at 24 h: > 800 mg/kg
[2]
  Ca2+ transient (CaT) decay time constant: sharply accelerated Ca^2+ transient (CaT) decay
  CaT amplitude: not significantly affected
  excitation release (ER) gain: increased excitation release (ER) gain
[3]
  concentration above which INaK inhibition is detectable: higher than 20 μM
